Reference: the NIST ThermoML archive (doi:10.1021/acs.jced.7b00694)

Experiment: xn = mol fraction of the nth substance listed
Details: Gas, Buoyancy - hydrostatic balance with magnetic suspension - one sinker

[HH] [hydrogen] + N#N
Details | mass density [kg/m3]
240.05 K, 998 kPa, x2 = 0.95 | 13.46
240.05 K, 1997 kPa, x2 = 0.95 | 27.15
240.05 K, 2999 kPa, x2 = 0.95 | 41.055
240.05 K, 3998 kPa, x2 = 0.95 | 55.055
240.05 K, 4998 kPa, x2 = 0.95 | 69.19
240.05 K, 5999 kPa, x2 = 0.95 | 83.412
240.05 K, 7000 kPa, x2 = 0.95 | 97.671
240.05 K, 8000 kPa, x2 = 0.95 | 111.894
240.05 K, 9001 kPa, x2 = 0.95 | 126.079
240.05 K, 10004 kPa, x2 = 0.95 | 140.187
240.05 K, 11004 kPa, x2 = 0.95 | 154.093
240.05 K, 12006 kPa, x2 = 0.95 | 167.817
240.05 K, 13008 kPa, x2 = 0.95 | 181.315
240.05 K, 14010 kPa, x2 = 0.95 | 194.555
240.05 K, 15014 kPa, x2 = 0.95 | 207.511
240.05 K, 16011 kPa, x2 = 0.95 | 220.048
240.05 K, 17007 kPa, x2 = 0.95 | 232.236
240.05 K, 18019 kPa, x2 = 0.95 | 244.268
240.05 K, 19018 kPa, x2 = 0.95 | 255.783
240.05 K, 19977 kPa, x2 = 0.95 | 266.493
240.07 K, 998 kPa, x2 = 0.9 | 12.789
240.07 K, 999 kPa, x2 = 0.5001 | 7.515
240.07 K, 1998 kPa, x2 = 0.9 | 25.761
240.07 K, 2000 kPa, x2 = 0.5001 | 14.997
240.07 K, 3000 kPa, x2 = 0.9 | 38.902
240.07 K, 3998 kPa, x2 = 0.9 | 52.1
240.07 K, 3999 kPa, x2 = 0.5001 | 29.835
240.07 K, 4998 kPa, x2 = 0.5001 | 37.187
240.07 K, 4998 kPa, x2 = 0.9 | 65.397
240.07 K, 5999 kPa, x2 = 0.5001 | 44.484
240.07 K, 5999 kPa, x2 = 0.9 | 78.743
240.07 K, 6999 kPa, x2 = 0.5001 | 51.715
240.07 K, 6999 kPa, x2 = 0.9 | 92.089
240.07 K, 8000 kPa, x2 = 0.9 | 105.416
240.07 K, 9001 kPa, x2 = 0.9 | 118.665
240.07 K, 10003 kPa, x2 = 0.9 | 131.826
240.07 K, 11003 kPa, x2 = 0.9 | 144.806
240.07 K, 12006 kPa, x2 = 0.9 | 157.633
240.07 K, 13007 kPa, x2 = 0.9 | 170.235
240.07 K, 14004 kPa, x2 = 0.9 | 182.528
240.07 K, 15010 kPa, x2 = 0.9 | 194.68
240.07 K, 16012 kPa, x2 = 0.9 | 206.497
240.07 K, 17016 kPa, x2 = 0.9 | 218.039
240.07 K, 18009 kPa, x2 = 0.9 | 229.14
240.07 K, 19021 kPa, x2 = 0.9 | 240.134
240.07 K, 19857 kPa, x2 = 0.9 | 248.956
240.08 K, 2989 kPa, x2 = 0.5001 | 22.354
240.08 K, 7999 kPa, x2 = 0.5001 | 58.867
240.08 K, 8999 kPa, x2 = 0.5001 | 65.94
240.08 K, 10002 kPa, x2 = 0.5001 | 72.937
240.08 K, 11003 kPa, x2 = 0.5001 | 79.831
240.08 K, 17004 kPa, x2 = 0.5001 | 118.935
240.08 K, 18010 kPa, x2 = 0.5001 | 125.09
240.08 K, 19066 kPa, x2 = 0.5001 | 131.423
240.09 K, 12008 kPa, x2 = 0.5001 | 86.648
240.09 K, 13002 kPa, x2 = 0.5001 | 93.298
240.09 K, 14003 kPa, x2 = 0.5001 | 99.881
240.09 K, 15003 kPa, x2 = 0.5001 | 106.346
240.09 K, 16007 kPa, x2 = 0.5001 | 112.717
250.02 K, 998 kPa, x2 = 0.95 | 12.909
250.02 K, 1998 kPa, x2 = 0.95 | 25.981
250.02 K, 2999 kPa, x2 = 0.95 | 39.211
250.02 K, 3999 kPa, x2 = 0.95 | 52.525
250.02 K, 4999 kPa, x2 = 0.95 | 65.908
250.02 K, 5999 kPa, x2 = 0.95 | 79.318
250.02 K, 6999 kPa, x2 = 0.95 | 92.739
250.02 K, 8001 kPa, x2 = 0.95 | 106.147
250.02 K, 9002 kPa, x2 = 0.95 | 119.485
250.02 K, 9998 kPa, x2 = 0.95 | 132.641
250.02 K, 11003 kPa, x2 = 0.95 | 145.769
250.02 K, 12002 kPa, x2 = 0.95 | 158.648
250.02 K, 13002 kPa, x2 = 0.95 | 171.33
250.02 K, 14006 kPa, x2 = 0.95 | 183.836
250.02 K, 15009 kPa, x2 = 0.95 | 196.059
250.02 K, 16008 kPa, x2 = 0.95 | 207.967
250.02 K, 17012 kPa, x2 = 0.95 | 219.644
250.02 K, 18015 kPa, x2 = 0.95 | 231.002
250.02 K, 19020 kPa, x2 = 0.95 | 242.075
250.02 K, 19863 kPa, x2 = 0.95 | 251.12
250.03 K, 999 kPa, x2 = 0.5001 | 7.213
250.03 K, 1999 kPa, x2 = 0.5001 | 14.386
250.03 K, 2988 kPa, x2 = 0.5001 | 21.436
250.03 K, 3998 kPa, x2 = 0.5001 | 28.596
250.03 K, 4998 kPa, x2 = 0.5001 | 35.626
250.04 K, 998 kPa, x2 = 0.9 | 12.26
250.04 K, 1998 kPa, x2 = 0.9 | 24.659
250.04 K, 2987 kPa, x2 = 0.9 | 37.024
250.04 K, 3998 kPa, x2 = 0.9 | 49.722
250.04 K, 4998 kPa, x2 = 0.9 | 62.325
250.04 K, 5999 kPa, x2 = 0.5001 | 42.6
250.04 K, 5999 kPa, x2 = 0.9 | 74.953
250.04 K, 6999 kPa, x2 = 0.5001 | 49.504
250.04 K, 6999 kPa, x2 = 0.9 | 87.557
250.04 K, 7999 kPa, x2 = 0.5001 | 56.336
250.04 K, 8000 kPa, x2 = 0.9 | 100.114
250.04 K, 8999 kPa, x2 = 0.5001 | 63.085
250.04 K, 9001 kPa, x2 = 0.9 | 112.6
250.04 K, 9995 kPa, x2 = 0.9 | 124.895
250.04 K, 9999 kPa, x2 = 0.5001 | 69.753
